Test results as given in ChEMBL document CHEMBL5625183, “Discovery of a novel dual-target inhibitor of CDK12 and PARP1 that induces synthetic lethality for treatment of triple-negative breast cancer” (Eur J Med Chem, 2023).
Activity calls are given as the source filed them. No cut-off for these calls is given here.

Experiments:
[1] = biological target: T1, Cyclin-dependent kinase 12 (Homo sapiens, UniProt Q9NYV4); experiment: Inhibition of CDK12 (unknown origin) in presence of ATP by kinase-glo plus luminescent assay
Target sequence in this assay (Q9NYV4 whole entry): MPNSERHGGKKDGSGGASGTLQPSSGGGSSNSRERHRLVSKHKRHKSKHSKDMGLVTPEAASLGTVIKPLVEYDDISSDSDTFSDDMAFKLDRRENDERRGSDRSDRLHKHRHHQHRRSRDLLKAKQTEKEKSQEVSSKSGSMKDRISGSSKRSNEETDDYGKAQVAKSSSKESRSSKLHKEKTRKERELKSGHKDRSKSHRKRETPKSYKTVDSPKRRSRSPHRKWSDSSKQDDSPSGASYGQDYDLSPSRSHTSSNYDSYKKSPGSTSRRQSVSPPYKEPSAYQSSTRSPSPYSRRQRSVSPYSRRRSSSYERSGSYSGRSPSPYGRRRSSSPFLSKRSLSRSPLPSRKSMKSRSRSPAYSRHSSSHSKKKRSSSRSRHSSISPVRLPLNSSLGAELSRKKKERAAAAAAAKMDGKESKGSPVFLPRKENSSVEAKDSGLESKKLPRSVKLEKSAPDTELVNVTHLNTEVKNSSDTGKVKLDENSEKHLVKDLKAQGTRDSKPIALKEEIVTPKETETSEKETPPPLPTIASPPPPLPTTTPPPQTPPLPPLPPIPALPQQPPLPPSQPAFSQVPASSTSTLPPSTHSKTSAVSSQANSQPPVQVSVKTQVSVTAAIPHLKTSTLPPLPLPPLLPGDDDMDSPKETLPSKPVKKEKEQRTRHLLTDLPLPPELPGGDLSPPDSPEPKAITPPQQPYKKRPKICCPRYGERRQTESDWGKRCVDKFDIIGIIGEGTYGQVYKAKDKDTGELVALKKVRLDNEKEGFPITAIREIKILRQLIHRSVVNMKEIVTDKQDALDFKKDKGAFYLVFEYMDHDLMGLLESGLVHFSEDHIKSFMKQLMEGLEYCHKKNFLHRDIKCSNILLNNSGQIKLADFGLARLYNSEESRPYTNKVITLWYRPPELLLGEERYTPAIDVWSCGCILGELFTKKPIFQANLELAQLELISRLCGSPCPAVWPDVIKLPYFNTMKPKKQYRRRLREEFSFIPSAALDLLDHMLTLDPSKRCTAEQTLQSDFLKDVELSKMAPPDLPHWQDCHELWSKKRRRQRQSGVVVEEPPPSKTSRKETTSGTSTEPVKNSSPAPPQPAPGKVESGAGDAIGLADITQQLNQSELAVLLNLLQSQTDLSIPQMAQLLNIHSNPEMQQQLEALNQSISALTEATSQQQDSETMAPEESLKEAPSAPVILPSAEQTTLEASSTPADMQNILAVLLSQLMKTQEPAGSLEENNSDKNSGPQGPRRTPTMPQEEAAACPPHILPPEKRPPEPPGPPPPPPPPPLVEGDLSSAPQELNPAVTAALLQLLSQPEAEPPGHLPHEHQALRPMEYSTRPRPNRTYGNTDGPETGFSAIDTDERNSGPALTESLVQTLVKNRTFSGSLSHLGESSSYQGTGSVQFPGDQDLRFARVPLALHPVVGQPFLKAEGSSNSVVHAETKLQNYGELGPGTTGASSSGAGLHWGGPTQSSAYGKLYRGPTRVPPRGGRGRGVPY

[2] = biological target: T1, Cyclin-dependent kinase 12; experiment: Inhibition of CDK12 (unknown origin) at 20 uM in presence of ATP by kinase-glo plus luminescent assay relative to control
Target sequence in this assay (Q9NYV4 whole entry, looked up): as the sequence (Q9NYV4 whole entry) above

[3] = Volume of distribution at steady state in Sprague-Dawley rat at 1 mg/kg, iv measured upto 24 hrs by LC-MS/MS analysis; format: ADME, organism-based; conditions: in vivo, read-out: Vdss
[4] = biological target: Poly [ADP-ribose] polymerase 1 (Homo sapiens, UniProt P09874); experiment: Binding affinity to PARP1 in human MDA-MB-436 cells assessed as increase in protein thermal stabilization at 10 uM incubated for 6 hrs by CETSA based Western blot analysis; format: cell-based
MDA-MB-468 [5] = experiment: […] DNA repair in human MDA-MB-468 cells assessed as decrease in RAD51 level at 10 uM incubated for 24 hrs by confocal laser scanning microscopic analysis; format: functional, cell-based
[6] = biological target: T1, Cyclin-dependent kinase 12; experiment: Inhibition of CDK12 (unknown origin) at 1 uM in presence of ATP by kinase-glo plus luminescent assay relative to control
Target sequence in this assay (Q9NYV4 whole entry, looked up): as the sequence (Q9NYV4 whole entry) above

[7] = biological target: Poly [ADP-ribose] polymerase 2 (Homo sapiens, UniProt Q9UGN5); experiment: Inhibition of PARP2 (unknown origin) incubated for 1 hr by ELISA analysis
[8] = Metabolic stability in human liver microsome assessed as half life in presence of NADPH incubated upto 60 mins by LC-MS/MS analysis; format: ADME; conditions: liver microsomes
[9] = biological target: T1, Cyclin-dependent kinase 12; experiment: Inhibition of CDK12 in human MDA-MB-231 cells assessed as effect on Pol II CTD at ser5 residue phosphorylation incubated for 24 hrs; format: cell-based; conditions: dose 5-20 µM
Target sequence in this assay (Q9NYV4 whole entry, looked up): as the sequence (Q9NYV4 whole entry) above

MDA-MB-436 [10] = experiment: Upregulation of gamma-H2AX expression in human MDA-MB-436 cells incubated for 24 hrs by Western blot analysis; format: functional, cell-based; conditions: dose <= 20.0 µM
MDA-MB-468 [11] = experiment: Antiproliferative activity against human MDA-MB-468 cells assessed as reduction in EDU-positive cells at 10 uM […]-staining based analysis; format: functional, cell-based
[12] = Tmax in Sprague-Dawley rat at 10 mg/kg, po measured upto 24 hrs by LC-MS/MS analysis; format: ADME, organism-based; conditions: in vivo
[13] = Half life in Sprague-Dawley rat 1 mg/kg, iv measured upto 24 hrs by LC-MS/MS analysis; format: ADME, organism-based; conditions: in vivo
MDA-MB-468 [14] = experiment: […] DNA repair in human MDA-MB-468 cells assessed as […] formation at 10 uM incubated for 24 hrs by confocal laser scanning microscopic analysis; format: functional, cell-based
MDA-MB-231 [15] = experiment: Antitumor activity against human MDA-MB-231 cells xenografted in ip dosed BALB/c mouse assessed as reduction in tumor growth administered once daily for 16 days; format: functional, organism-based; conditions: dose 20-80 mg/kg, time 16.0 day
[16] = biological target: T1, Cyclin-dependent kinase 12; experiment: Inhibition of CDK12 in human MDA-MB-436 cells assessed as effect on Pol II CTD at ser5 residue phosphorylation incubated for 24 hrs; format: cell-based; conditions: dose 5-20 µM
Target sequence in this assay (Q9NYV4 whole entry, looked up): as the sequence (Q9NYV4 whole entry) above

MDA-MB-231 [17] = experiment: Antiproliferative activity against human MDA-MB-231 cells transfected with CDK12 M816A and PARP1 G863A mutant incubated for 24 hrs by MTT assay; format: functional, cell-based
MDA-MB-231 [18] = experiment: Antiproliferative activity against human MDA-MB-231 cells transfected with wild type PARP1 and CDK12 M816A mutant incubated for 24 hrs by MTT assay; format: functional, cell-based
MDA-MB-231 [19] = experiment: Antitumor activity against human MDA-MB-231 cells xenografted in ip dosed BALB/c mouse assessed as upregulation of E-cadherin level administered once daily for 16 days; format: functional, organism-based; conditions: dose 20-80 mg/kg, time 16.0 day
MDA-MB-436 [20] = experiment: Induction of cell cycle arrest in human MDA-MB-436 cells assessed as accumulation of cells at G2 phase at 20 uM measured after 24 hrs by PI staining based cytometry analysis (reference value: 2.54%); format: functional
[21] = Metabolic stability in BALB/c mouse liver microsome assessed as intrinsic clearance in presence of NADPH incubated upto 60 mins by LC-MS/MS analysis; format: ADME; conditions: liver microsomes, read-out: CLH
[22] = biological target: Transcription initiation factor TFIID subunit 1-like (Homo sapiens) (UniProt Q8IZX4); experiment: Inhibition of TAF1L (unknown origin) at 1 uM relative to control
[23] = AUC (0 to infinity) in Sprague-Dawley rat at 1 mg/kg, iv measured upto 24 hrs by LC-MS/MS analysis; format: ADME, organism-based; conditions: in vivo
[24] = biological target: Cyclin-dependent kinase 1 (Homo sapiens, UniProt P06493); experiment: Inhibition of CDK1 (unknown origin) at 1 uM relative to control
[25] = Cmax in Sprague-Dawley rat at 1 mg/kg, iv measured upto 24 hrs by LC-MS/MS analysis; format: ADME, organism-based; conditions: in vivo
MDA-MB-436 [26] = experiment: Induction of cell cycle arrest in human MDA-MB-436 cells assessed as accumulation of cells at G1 phase at 5 uM measured after 24 hrs by PI staining based cytometry analysis (reference value: 72.04%); format: functional
[27] = biological target: Cyclin-dependent kinase 2 (Homo sapiens, UniProt P24941); experiment: Inhibition of CDK2 (unknown origin)
[28] = biological target: T2, Dual specificity tyrosine-phosphorylation-regulated kinase 2 (Homo sapiens) (UniProt Q92630); experiment: Inhibition of DYRK2 (unknown origin) at 1 uM relative to control
T2 sequence (whole entry): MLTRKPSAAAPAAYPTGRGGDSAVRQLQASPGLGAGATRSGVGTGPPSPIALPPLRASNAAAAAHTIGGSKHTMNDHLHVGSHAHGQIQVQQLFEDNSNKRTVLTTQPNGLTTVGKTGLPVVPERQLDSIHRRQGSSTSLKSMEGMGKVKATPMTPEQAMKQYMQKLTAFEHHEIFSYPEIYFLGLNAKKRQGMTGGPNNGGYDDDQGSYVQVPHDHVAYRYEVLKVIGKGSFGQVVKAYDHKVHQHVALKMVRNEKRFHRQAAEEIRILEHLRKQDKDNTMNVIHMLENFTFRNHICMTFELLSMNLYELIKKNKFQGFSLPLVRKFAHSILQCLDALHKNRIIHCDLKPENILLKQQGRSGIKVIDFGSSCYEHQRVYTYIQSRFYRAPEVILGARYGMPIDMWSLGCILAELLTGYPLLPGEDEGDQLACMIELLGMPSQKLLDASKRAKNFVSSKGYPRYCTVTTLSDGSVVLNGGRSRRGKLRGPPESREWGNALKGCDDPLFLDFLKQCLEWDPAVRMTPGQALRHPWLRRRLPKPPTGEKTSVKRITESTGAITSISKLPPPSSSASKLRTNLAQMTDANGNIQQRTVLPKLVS

Mus musculus = experiment: In-vivo inhibition of CDK12-PARP1 in BALB/c mouse assessed as downregulation of CTD at Ser2 residue expression in tumor at 20 to 80 mg/kg, ip administered once daily for 16 days by Western blot analysis; format: functional, organism-based; conditions: dose 20-80 mg/kg, time 16.0 day
[29] = Toxicity in BALB/c mouse xenografted with human MDA-MB-231 cells assessed as morphological changes in liver at 20 to 80 mg/kg, ip administered once daily for 16 days by H and E staining based analysis; format: organism-based; conditions: in vivo, 384 h, dose 20-80 mg/kg, time 16 day

Sequence of Transcription initiation factor TFIID subunit 1-like (Homo sapiens) (Q8IZX4 whole entry): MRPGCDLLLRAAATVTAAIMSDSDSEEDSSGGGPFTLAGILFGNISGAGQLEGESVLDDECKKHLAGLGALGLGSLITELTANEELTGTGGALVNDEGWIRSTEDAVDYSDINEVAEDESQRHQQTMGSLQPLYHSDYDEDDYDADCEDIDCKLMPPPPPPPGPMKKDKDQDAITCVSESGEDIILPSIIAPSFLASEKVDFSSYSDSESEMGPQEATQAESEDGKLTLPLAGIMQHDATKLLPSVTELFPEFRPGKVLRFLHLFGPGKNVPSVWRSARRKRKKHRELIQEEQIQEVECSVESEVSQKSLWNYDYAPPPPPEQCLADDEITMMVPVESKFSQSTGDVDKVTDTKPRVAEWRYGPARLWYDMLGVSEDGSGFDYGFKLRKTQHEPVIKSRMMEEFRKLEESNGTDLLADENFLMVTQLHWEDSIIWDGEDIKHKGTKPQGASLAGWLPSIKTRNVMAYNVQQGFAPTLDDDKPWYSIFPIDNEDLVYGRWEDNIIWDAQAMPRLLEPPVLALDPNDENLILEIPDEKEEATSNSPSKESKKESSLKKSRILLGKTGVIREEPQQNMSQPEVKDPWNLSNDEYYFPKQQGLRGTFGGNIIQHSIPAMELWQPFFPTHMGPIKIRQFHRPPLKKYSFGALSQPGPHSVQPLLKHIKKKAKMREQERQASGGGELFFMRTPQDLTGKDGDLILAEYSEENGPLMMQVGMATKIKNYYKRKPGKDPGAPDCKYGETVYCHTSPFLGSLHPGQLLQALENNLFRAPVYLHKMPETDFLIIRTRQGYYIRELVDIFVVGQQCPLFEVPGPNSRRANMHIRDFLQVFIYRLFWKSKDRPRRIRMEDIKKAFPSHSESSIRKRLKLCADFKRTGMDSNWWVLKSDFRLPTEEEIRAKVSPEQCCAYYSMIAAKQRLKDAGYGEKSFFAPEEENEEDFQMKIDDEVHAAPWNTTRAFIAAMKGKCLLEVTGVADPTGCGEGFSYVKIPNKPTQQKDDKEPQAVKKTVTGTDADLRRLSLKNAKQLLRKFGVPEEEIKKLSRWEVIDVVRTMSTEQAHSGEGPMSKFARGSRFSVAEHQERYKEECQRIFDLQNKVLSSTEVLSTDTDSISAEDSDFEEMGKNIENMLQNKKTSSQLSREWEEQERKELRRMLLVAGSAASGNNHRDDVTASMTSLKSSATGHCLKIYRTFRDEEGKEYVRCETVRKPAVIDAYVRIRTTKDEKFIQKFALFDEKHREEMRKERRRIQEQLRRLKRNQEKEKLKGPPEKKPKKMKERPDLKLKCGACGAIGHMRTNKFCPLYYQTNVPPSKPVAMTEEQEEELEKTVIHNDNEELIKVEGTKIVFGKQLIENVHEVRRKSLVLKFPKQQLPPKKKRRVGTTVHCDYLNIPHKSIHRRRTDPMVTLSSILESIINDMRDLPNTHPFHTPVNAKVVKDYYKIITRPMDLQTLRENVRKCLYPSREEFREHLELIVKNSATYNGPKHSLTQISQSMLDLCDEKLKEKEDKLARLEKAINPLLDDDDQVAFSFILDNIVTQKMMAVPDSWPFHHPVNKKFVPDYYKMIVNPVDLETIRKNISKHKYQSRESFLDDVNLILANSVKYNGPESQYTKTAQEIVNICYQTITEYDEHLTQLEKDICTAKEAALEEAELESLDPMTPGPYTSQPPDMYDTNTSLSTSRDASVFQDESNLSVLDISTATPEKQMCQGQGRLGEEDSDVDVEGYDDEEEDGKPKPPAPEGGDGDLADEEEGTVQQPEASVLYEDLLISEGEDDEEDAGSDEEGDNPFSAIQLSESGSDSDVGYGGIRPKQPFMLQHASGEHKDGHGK
Sequence of Poly [ADP-ribose] polymerase 2 (Q9UGN5 whole entry): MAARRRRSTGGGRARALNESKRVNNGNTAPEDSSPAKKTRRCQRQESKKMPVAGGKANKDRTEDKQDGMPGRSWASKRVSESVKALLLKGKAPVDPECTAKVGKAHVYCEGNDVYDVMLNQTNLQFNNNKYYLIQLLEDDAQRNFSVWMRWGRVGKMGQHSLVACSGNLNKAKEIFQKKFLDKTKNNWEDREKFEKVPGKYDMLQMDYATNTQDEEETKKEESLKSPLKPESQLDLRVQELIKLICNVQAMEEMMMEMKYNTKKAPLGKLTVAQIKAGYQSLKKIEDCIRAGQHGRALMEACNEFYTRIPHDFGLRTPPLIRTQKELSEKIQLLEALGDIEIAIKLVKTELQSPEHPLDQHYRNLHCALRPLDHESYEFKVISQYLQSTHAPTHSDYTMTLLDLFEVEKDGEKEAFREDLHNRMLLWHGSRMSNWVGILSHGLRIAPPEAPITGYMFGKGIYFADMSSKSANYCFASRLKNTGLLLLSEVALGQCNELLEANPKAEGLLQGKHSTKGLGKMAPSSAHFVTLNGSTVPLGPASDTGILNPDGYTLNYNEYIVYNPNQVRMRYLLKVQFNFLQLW
Sequence of Poly [ADP-ribose] polymerase 1 (P09874 whole entry): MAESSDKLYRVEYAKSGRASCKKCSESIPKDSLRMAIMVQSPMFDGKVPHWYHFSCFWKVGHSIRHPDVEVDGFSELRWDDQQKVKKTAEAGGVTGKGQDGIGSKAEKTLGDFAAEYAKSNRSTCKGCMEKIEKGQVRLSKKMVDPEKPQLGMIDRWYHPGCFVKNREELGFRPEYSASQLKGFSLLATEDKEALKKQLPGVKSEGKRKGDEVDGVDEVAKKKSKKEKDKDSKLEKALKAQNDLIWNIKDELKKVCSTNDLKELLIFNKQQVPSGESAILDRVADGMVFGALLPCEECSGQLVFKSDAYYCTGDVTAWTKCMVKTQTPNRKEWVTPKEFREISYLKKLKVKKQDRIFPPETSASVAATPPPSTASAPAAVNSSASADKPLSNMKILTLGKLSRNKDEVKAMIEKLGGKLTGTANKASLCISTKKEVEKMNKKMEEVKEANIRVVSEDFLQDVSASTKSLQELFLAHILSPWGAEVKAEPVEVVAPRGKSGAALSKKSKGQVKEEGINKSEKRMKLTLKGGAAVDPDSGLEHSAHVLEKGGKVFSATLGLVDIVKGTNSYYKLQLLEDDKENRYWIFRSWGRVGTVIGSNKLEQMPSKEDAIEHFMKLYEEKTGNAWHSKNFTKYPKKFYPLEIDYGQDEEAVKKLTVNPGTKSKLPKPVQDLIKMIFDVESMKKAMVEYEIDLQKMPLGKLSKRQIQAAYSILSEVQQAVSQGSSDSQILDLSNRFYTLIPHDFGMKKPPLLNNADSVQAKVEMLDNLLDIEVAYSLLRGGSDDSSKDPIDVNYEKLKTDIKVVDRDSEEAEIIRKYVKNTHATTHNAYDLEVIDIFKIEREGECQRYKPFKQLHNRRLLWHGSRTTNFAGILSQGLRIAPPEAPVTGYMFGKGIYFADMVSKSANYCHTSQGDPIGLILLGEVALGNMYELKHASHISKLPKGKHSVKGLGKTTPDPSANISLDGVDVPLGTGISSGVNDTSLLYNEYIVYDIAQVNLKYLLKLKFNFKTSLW

With `NC(=O)c1cccc2[nH]c(NC(=O)c3cccc(C(=O)N4CCC(Nc5ncc(I)cn5)CC4)c3)nc12` the IC50 [1] was 285 nM, the inhibition [2] was “Active” and the Vd [3] was 1.39 L/kg. The Activity [4] was “Active”, the Activity (MDA-MB-468 [5]) was “Active” and the inhibition [6] was 77.3%. For the same compound, the IC50 [7] was 30 nM, the half-life [8] was 3.51 h and the inhibition [9] was “Dose-Dependent Effect”. The Activity (MDA-MB-436 [10]) was “Dose-Dependent Effect”, the Activity (MDA-MB-468 [11]) was “Active” and the Tmax [12] was 1.58 h. For the same compound, the half-life [13] was 3 h, the Activity (MDA-MB-468 [14]) was “Active” and the Activity (MDA-MB-231 [15]) was “Dose-Dependent Effect”. For the same compound, the inhibition [16] was “Dose-Dependent Effect”, the Activity (MDA-MB-231 [17]) was “Active” and the Activity (MDA-MB-231 [18]) was “Active”. For the same compound, the Activity (MDA-MB-231 [19]) was “Dose-Dependent Effect”, the Activity (MDA-MB-436 [20]) was 15.05% and the CLint scaled [21] was 48.5 mL/min/kg. It also gave an inhibition [22] of over 60%, an AUC(0-inf) [23] of 1340 ng·h/mL and an inhibition [24] of over 60%. The Cmax [25] was 2130 ng/mL, the Activity (MDA-MB-436 [26]) was 69.11% and the IC50 [27] was 689 nM. For the same compound, the inhibition [28] was over 60%, the inhibition (Mus musculus) was “Active” and the Activity [29] was “Non-Toxic”.
